± gives the uncertainty stated by the source.
Assay: xn = mol fraction of the nth substance listed

CS(C)=O + Cc1ccccc1
Conditions | viscosity [mPa·s]
298.15 K, 101 kPa, x1 = 0.1 | 0.606 ± 0.006
298.15 K, 101 kPa, x1 = 0.2 | 0.675 ± 0.007
298.15 K, 101 kPa, x1 = 0.3 | 0.761 ± 0.008
298.15 K, 101 kPa, x1 = 0.4 | 0.867 ± 0.009
298.15 K, 101 kPa, x1 = 0.5 | 0.99 ± 0.01
298.15 K, 101 kPa, x1 = 0.6 | 1.122 ± 0.011
298.15 K, 101 kPa, x1 = 0.7 | 1.268 ± 0.012
298.15 K, 101 kPa, x1 = 0.8 | 1.452 ± 0.014
298.15 K, 101 kPa, x1 = 0.9 | 1.679 ± 0.016
298.15 K, 101.3 kPa, x1 = 0.1025 | 0.609 ± 0.017
298.15 K, 101.3 kPa, x1 = 0.2029 | 0.671 ± 0.018
298.15 K, 101.3 kPa, x1 = 0.3843 | 0.838 ± 0.022
298.15 K, 101.3 kPa, x1 = 0.504 | 0.964 ± 0.024
298.15 K, 101.3 kPa, x1 = 0.6035 | 1.095 ± 0.027
298.15 K, 101.3 kPa, x1 = 0.7049 | 1.25 ± 0.031
298.15 K, 101.3 kPa, x1 = 0.7997 | 1.43 ± 0.035
298.15 K, 101.3 kPa, x1 = 0.9017 | 1.686 ± 0.04
302.4 K, 101 kPa, x1 = 0.0908 | 1.087
302.4 K, 101 kPa, x1 = 0.2568 | 1.399
302.4 K, 101 kPa, x1 = 0.4732 | 1.615
302.4 K, 101 kPa, x1 = 0.5996 | 2.242
302.4 K, 101 kPa, x1 = 0.7139 | 2.506
302.4 K, 101 kPa, x1 = 0.8665 | 3.234
303.15 K, 101.3 kPa, x1 = 0.1025 | 0.574 ± 0.016
303.15 K, 101.3 kPa, x1 = 0.2029 | 0.636 ± 0.017
303.15 K, 101.3 kPa, x1 = 0.3843 | 0.777 ± 0.02
303.15 K, 101.3 kPa, x1 = 0.504 | 0.894 ± 0.023
303.15 K, 101.3 kPa, x1 = 0.6035 | 1.01 ± 0.025
303.15 K, 101.3 kPa, x1 = 0.7049 | 1.149 ± 0.028
303.15 K, 101.3 kPa, x1 = 0.7997 | 1.309 ± 0.032
303.15 K, 101.3 kPa, x1 = 0.9017 | 1.526 ± 0.037
308.15 K, 101 kPa, x1 = 0.1 | 0.537 ± 0.006
308.15 K, 101 kPa, x1 = 0.2 | 0.594 ± 0.006
308.15 K, 101 kPa, x1 = 0.3 | 0.664 ± 0.007
308.15 K, 101 kPa, x1 = 0.4 | 0.741 ± 0.008
308.15 K, 101 kPa, x1 = 0.5 | 0.833 ± 0.008
308.15 K, 101 kPa, x1 = 0.6 | 0.937 ± 0.009
308.15 K, 101 kPa, x1 = 0.7 | 1.065 ± 0.011
308.15 K, 101 kPa, x1 = 0.8 | 1.217 ± 0.012
308.15 K, 101 kPa, x1 = 0.9 | 1.407 ± 0.014
308.15 K, 101.3 kPa, x1 = 0.1025 | 0.54 ± 0.015
308.15 K, 101.3 kPa, x1 = 0.2029 | 0.598 ± 0.016
308.15 K, 101.3 kPa, x1 = 0.3843 | 0.727 ± 0.019
308.15 K, 101.3 kPa, x1 = 0.504 | 0.833 ± 0.021
308.15 K, 101.3 kPa, x1 = 0.6035 | 0.963 ± 0.024
308.15 K, 101.3 kPa, x1 = 0.7049 | 1.062 ± 0.027
308.15 K, 101.3 kPa, x1 = 0.7997 | 1.204 ± 0.03
308.15 K, 101.3 kPa, x1 = 0.9017 | 1.398 ± 0.034
318.15 K, 101 kPa, x1 = 0.1 | 0.482 ± 0.005
318.15 K, 101 kPa, x1 = 0.2 | 0.53 ± 0.006
318.15 K, 101 kPa, x1 = 0.3 | 0.587 ± 0.006
318.15 K, 101 kPa, x1 = 0.4 | 0.654 ± 0.007
318.15 K, 101 kPa, x1 = 0.5 | 0.731 ± 0.007
318.15 K, 101 kPa, x1 = 0.6 | 0.817 ± 0.008
318.15 K, 101 kPa, x1 = 0.7 | 0.921 ± 0.009
318.15 K, 101 kPa, x1 = 0.8 | 1.047 ± 0.01
318.15 K, 101 kPa, x1 = 0.9 | 1.201 ± 0.012

OC1CCCCC1 + Cc1ccccc1Cl
303.15 K, 101 kPa
Conditions | viscosity [mPa·s]
x1 = 0.1104 | 4.861 ± 0.58
x1 = 0.2183 | 8.854 ± 1.1
x1 = 0.3237 | 12.93 ± 1.6
x1 = 0.4268 | 17.06 ± 2.1
x1 = 0.5276 | 21.22 ± 2.6
x1 = 0.6262 | 25.36 ± 3.1
x1 = 0.7227 | 29.4 ± 3.6
x1 = 0.8171 | 33.34 ± 4
x1 = 0.9095 | 37.22 ± 4.5

C1CCCCCCC1 + Clc1ccccc1
viscosity [mPa·s], 101 kPa
Conditions | x1 = 0.1213 | x1 = 0.2071 | x1 = 0.3009 | x1 = 0.3941 | x1 = 0.5112 | x1 = 0.5915 | x1 = 0.6905 | x1 = 0.799 | x1 = 0.9125
308.15 K | 0.7246 ± 0.024 | 0.7681 ± 0.026 | 0.8486 ± 0.028 | 0.9205 ± 0.03 | 1.014 ± 0.032 | 1.079 ± 0.034 | 1.159 ± 0.037 | 1.297 ± 0.04 | 1.544 ± 0.047
313.15 K | 0.6673 ± 0.023 | 0.7011 ± 0.024 | 0.7511 ± 0.025 | 0.8196 ± 0.027 | 0.9056 ± 0.03 | 0.951 ± 0.031 | 1.042 ± 0.033 | 1.197 ± 0.037 | 1.402 ± 0.043

CCN(CC)CCO + NCCO
Conditions | viscosity [mPa·s]
293.15 K, 101 kPa, x2 = 0.9 | 22.75 ± 4.6

From the CheMixHub viscosity set
